We go through 53 compounds from ChEMBL document CHEMBL1156829 (Proc Natl Acad Sci U S A, 2008).

Structures are written as SMILES.

The nature of data set [1]: NOVARTIS: Cytotoxicity against human hepatocellular carcinoma cell line (Huh7). In kind it is toxicity, cell-based, Huh-7. The note with it: Huh7 cells (hepatocellular carcinoma cell line).
Data set [2] concerns Plasmodium falciparum. As to the kind of experiment: NOVARTIS: Inhibition of Plasmodium falciparum W2 (drug-resistant) proliferation in erythrocyte-based infection assay. The note with it: Plasmodium falciparum, W2; read-out: EC50. Format: functional, organism-based.
Data set [3] relates to Plasmodium falciparum. Put plainly: NOVARTIS: Inhibition of Plasmodium falciparum 3D7 (drug-susceptible) proliferation in erythrocyte-based infection assay. Format: functional, organism-based. The note with it: Plasmodium falciparum, 3D7.

On to `CCOC(=O)c1nc2nc(C)cc(O)n2n1`, for which the CC50 in data set [1] is over 10000 nM. Besides, the EC50 was over 940 nM in the data set on Plasmodium falciparum [2] and over 739 nM with Plasmodium falciparum [3].
In turn, `CO[C@H]1[C@@H](C)[C@@H]([C@H](C)C2O[C@@]3(CC[C@@](C)([C@H]4CC[C@@](C)([C@@H]5O[C@@H]([C@H]6O[C@](C)(O)[C@H](C)C[C@@H]6C)C[C@@H]5C)O4)O3)C[C@H](O)[C@@H]2C)O[C@@](O)([C@H](C)C(=O)O)[C@H]1C` (some centres undefined) registered a CC50 in data set [1] of over 10000 nM. Moreover, the EC50 in the data set with Plasmodium falciparum [2] is 938 nM; with Plasmodium falciparum [3], 1140 nM.
The like results for `Cc1cccc(-n2c(-c3ccccc3)nc3ccc(-c4ccc5nc(-c6ccccc6)n(-c6cccc(C)c6)c(=O)c5c4)cc3c2=O)c1` were, in that order, over 10000 nM, over 939 nM and over 1200 nM.
Taken in the same sequence, the figures for `Cc1cc2nc(NC(=N)N)nc(C)c2cc1C` were over 100000 nM, over 9300 nM and 2660 nM.
In data set [1], `CCOC(=O)C1=C(C)N=c2sc(=Cc3cccc(OCc4cccc5ccccc45)c3)c(=O)n2C1c1ccc(OC)cc1OC` (centres undefined) gave a CC50 of over 100000 nM. Also, the EC50 was over 9270 nM with Plasmodium falciparum [2] and over 12500 nM in the data set on Plasmodium falciparum [3].
Consider `CCN1CCN(CC(O)COc2ccc(OC)cc2)CC1` (centres undefined), for which the CC50 in data set [1] was over 100000 nM. Moreover, the EC50 in the data set on Plasmodium falciparum [2] is over 9190 nM; with Plasmodium falciparum [3] it was 2810 nM.
Consider `Oc1ccc(Nc2nc(N3CCCC3)c3ccccc3n2)cc1`, for which the CC50 in data set [1] was over 10000 nM. For the same compound, the EC50 with Plasmodium falciparum [2] came to 926 nM; in the data set with Plasmodium falciparum [3], 584 nM.
Consider `CCCCNC(=O)N(CCCC(C)Nc1cc(OC)cc2cccnc12)Cc1ccc(OC)c(OC)c1` (centres undefined), for which, in data set [1], the CC50 was over 4470 nM. For the same compound, the half-maximal effective concentration (EC50) was found to be 422 nM with Plasmodium falciparum [2] and 1260 nM in the data set with Plasmodium falciparum [3].
As for `CCOC(=O)c1cnn(-c2ccnc3cc(Cl)ccc23)c1CNC(C)c1cccs1` (centres undefined), the half-maximal cytotoxic concentration (CC50) in data set [1] is over 10000 nM. Further, the values for the EC50 with Plasmodium falciparum [2] and in the data set with Plasmodium falciparum [3] were over 944 nM and over 1560 nM, respectively.
Taken in the same sequence, the figures for `Cc1cc(Nc2ccc(C)c(Cl)c2)n2ncnc2n1` were over 10000 nM, over 927 nM and 1400 nM.
As for `CCCCCOc1ccc(/C=C2/N=C(c3ccccc3)OC2=O)cc1`, the CC50 in data set [1] was over 10000 nM. The values for the half-maximal effective concentration (EC50) with Plasmodium falciparum [2] and in the data set with Plasmodium falciparum [3] were over 944 nM and over 116 nM, respectively.
The like results for `COCCNC(=O)c1ccc2c(=O)n(Cc3ccc4c(c3)OCO4)c(=S)[nH]c2c1` were, in that order, over 10000 nM, 943 nM and over 533 nM.
For `CCOC(=O)C1=C(C)N/C(=C\c2cc(C)n(-c3cccc(Br)c3)c2C)C1=O`, the CC50 in data set [1] is over 10000 nM. Besides, the EC50 with Plasmodium falciparum [2] was over 926 nM; with Plasmodium falciparum [3], over 1250 nM.
`CC(Cc1ccccc1)NCCCCCNC(C)Cc1ccccc1` (centres undefined) returned a CC50 in data set [1] of 5320 nM. Besides, the EC50 with Plasmodium falciparum [2] turned out to be 503 nM; with Plasmodium falciparum [3], 238 nM.
The like results for `COc1cc(Br)c(/C=C2\Sc3ccccc3C2=O)cc1OC` were, in that order, over 10000 nM, over 925 nM and over 1250 nM.
The compound `O=C(CCl)Nc1ccc(S(=O)(=O)OCC(F)(F)C(F)F)cc1` registered a 50% cytotoxic concentration (CC50) in data set [1] of 17100 nM. Further, the values for the EC50 with Plasmodium falciparum [2] and in the data set on Plasmodium falciparum [3] were 1580 nM and 1730 nM, respectively.
The like results for `Cc1c(C#N)c2ccccc2n1CC(=O)Nc1ccc(Br)cc1` were, in that order, 11100 nM, 1030 nM and 771 nM.
In data set [1], `Cc1ccc([N+](=O)[O-])cc1-c1ccc(/C=C2/SC(=S)N(CC(=O)O)C2=O)o1` showed a CC50 of over 10000 nM. Moreover, the EC50 with Plasmodium falciparum [2] was over 940 nM; in the data set on Plasmodium falciparum [3], over 1250 nM.
Taken in the same sequence, the figures for `COc1cccc(-c2ccc(O)c(CNCc3ccccc3OC)c2)n1` were over 10000 nM, 939 nM and 1090 nM.
Taken in the same sequence, the figures for `COc1ccc(C(=O)Nc2ccc(-c3nc4ccc(NC(=O)c5ccc(OC)cc5)cc4[nH]3)cc2)cc1` were 8780 nM, 810 nM and 800 nM.
Taken in the same sequence, the figures for `CCOC(=O)C1=C(N)n2c(sc(=Cc3cccnc3)c2=O)=C(C(=O)OC)C1c1cccnc1` (centres undefined) were over 10000 nM, over 922 nM and over 1250 nM.
`COc1cc(/C=C(\C#N)c2nc3ccccc3[nH]2)ccc1OCc1ccccc1F` showed a CC50 in data set [1] of over 10000 nM. In addition, the values for the EC50 in the data set on Plasmodium falciparum [2] and in the data set with Plasmodium falciparum [3] were 919 nM and over 1190 nM, respectively.
Taken in the same sequence, the figures for `N#C/C(=C\C=C\c1ccc([N+](=O)[O-])o1)c1nc2ccccc2[nH]1` were over 10000 nM, 946 nM and 1050 nM.
The like results for `CC(=O)Nc1ccc(C(=O)N2CCC(Oc3cccc(CN(C)Cc4cccc5ccccc45)c3)CC2)cc1` were, in that order, over 10000 nM, 945 nM and over 1250 nM.
Taken in the same sequence, the figures for `COc1cc(C=NNC(=O)c2ccco2)ccc1OCc1ccc([N+](=O)[O-])cc1` were over 10000 nM, over 941 nM and over 1250 nM.
`C=CCOc1cccc(/C=C2/NC(C)=C(C(=O)OCC)C2=O)c1`: the CC50 in data set [1] was over 10000 nM. The EC50 was over 933 nM with Plasmodium falciparum [2] and over 1040 nM in the data set with Plasmodium falciparum [3].
The like results for `CC1CCC(Nc2ccnc3cc(Cl)ccc23)CC1` (centres undefined) were, in that order, over 10000 nM, 933 nM and 843 nM.
Taken in the same sequence, the figures for `O=C(NCCCN1CCCC1=O)c1cccn2c(=O)c3ccc(Cl)cc3nc12` were over 10000 nM, over 918 nM and over 1350 nM.
Turning to `CC1CC(=Cc2ccncc2)C(=O)C(=Cc2ccncc2)C1` (centres undefined), in data set [1], the CC50 was found to be 7770 nM. Moreover, the results for the EC50 in the data set on Plasmodium falciparum [2] and in the data set with Plasmodium falciparum [3] were 736 nM and 1630 nM, respectively.
Taken in the same sequence, the figures for `COc1ccc(N2C(=O)/C(=C3/C(=O)Nc4ccc(F)cc43)SC2=S)c(OC)c1` were over 10000 nM, 947 nM and over 926 nM.
The like results for `O=C(COC(c1ccccc1)c1cccnc1)NCCNC(=O)OCc1ccccc1` (centres undefined) were, in that order, over 10000 nM, 941 nM and 967 nM.
Taken in the same sequence, the figures for `CCOc1ccc(CN(C(=O)C(C)(C)CCl)C(C)CCCN(CC)CC)cc1` (centres undefined) were over 10000 nM, 941 nM and over 878 nM.
As for `COc1cc(NC(C)CCCN(Cc2ccccc2OC)S(=O)(=O)c2ccc(Br)cc2)c2ncccc2c1` (centres undefined), in data set [1], half-maximal cytotoxicity (CC50) was put at 4580 nM. Besides, the results for the EC50 with Plasmodium falciparum [2] and with Plasmodium falciparum [3] were 427 nM and 945 nM, respectively.
The like results for `Cc1cccc(NC(=O)/C(C#N)=C/c2ccc(C)o2)c1` were, in that order, over 10000 nM, over 934 nM and over 1250 nM.
Taken in the same sequence, the figures for `CCCOc1ncnc2c1sc1nc3c(cc12)COC(C)(C)C3` were over 10000 nM, over 936 nM and over 967 nM.
Taken in the same sequence, the figures for `CCCCN(C(=O)Nc1ccc(OCC)cc1)C(C)c1nc2ccccc2c(=O)n1-c1ccc(F)c(Cl)c1` (centres undefined) were over 10000 nM, 935 nM and 1010 nM.
`Cn1c(=O)c2c(ncn2CC(O)CN=C2CCCCN2)n(C)c1=O` (centres undefined): the CC50 in data set [1] was over 10000 nM. The EC50 in the data set on Plasmodium falciparum [2] was over 933 nM; in the data set with Plasmodium falciparum [3], over 1250 nM.
The like results for `COc1ccc(NS(=O)(=O)c2cccc(C(=O)Nc3ccccc3[N+](=O)[O-])c2)cc1` were, in that order, 44400 nM, 4130 nM and over 12500 nM.
The like results for `N#C/C(=C\n1cc(Cc2ccc(Cl)cc2Cl)c2ccccc21)c1nn(CCO)c(N)c1C#N` were, in that order, over 10000 nM, 929 nM and 913 nM.
The like results for `Nc1cc(OC(=O)c2ccccc2)nn1S(=O)(=O)c1ccc(Cl)cc1` were, in that order, over 10000 nM, 923 nM and over 1250 nM.
In turn, `CCN(CC)CCCN(Cc1cc2ccc(OC)cc2[nH]c1=O)C(=S)NCc1ccccc1` displayed a CC50 in data set [1] of 25800 nM. In addition, the results for the concentration giving a half-maximal response (EC50) with Plasmodium falciparum [2] and in the data set with Plasmodium falciparum [3] were 2410 nM and 3910 nM, respectively.
The like results for `O=C(Nc1ccccc1Cl)C1CCCN1C(=O)OCc1ccccc1` (centres undefined) were, in that order, over 10000 nM, over 929 nM and over 1250 nM.
In the case of `N#C/C(=C\c1ccc(Sc2ccccc2)o1)c1nc2ccccc2[nH]1`, the CC50 in data set [1] is over 10000 nM. The concentration for a half-maximal effect (EC50) in the data set with Plasmodium falciparum [2] was found to be 947 nM; in the data set on Plasmodium falciparum [3] it was 1510 nM.
Taken in the same sequence, the figures for `CCn1c(SCCCCNC(=O)c2cc([N+](=O)[O-])cc([N+](=O)[O-])c2)nc(-c2ccccc2)c1-c1ccccc1` were 6520 nM, 612 nM and 724 nM.
Taken in the same sequence, the figures for `O=C(NN=Cc1cc2ccccc2cc1O)c1cccnc1` were over 10000 nM, 946 nM and 871 nM.
The like results for `Fc1ccc(CSc2ccc3nnc(-c4cccnc4)n3n2)cc1` were, in that order, over 10000 nM, over 937 nM and over 1250 nM.
In data set [1], `Cc1ccc2c(c1)C1CN(C)CCC1N2C(=O)c1cc2ccccc2o1` (centres undefined) showed a CC50 of over 10000 nM. In addition, the EC50 was over 922 nM in the data set on Plasmodium falciparum [2] and over 1040 nM in the data set with Plasmodium falciparum [3].
The like results for `CCn1c(SCCNC(=O)CC(C)C)nc(-c2ccccc2)c1-c1ccccc1` were, in that order, over 9920 nM, over 922 nM and over 1250 nM.
Taken in the same sequence, the figures for `CSc1oc(-c2ccccc2)nc1C(N)=O` were over 10000 nM, over 925 nM and over 1200 nM.
Taken in the same sequence, the figures for `CCOC(=O)Cn1cnc2c(nnn2Cc2ccc(F)cc2)c1=O` were over 1700 nM, 160 nM and 380 nM.
The compound `O=C(COc1cccc(Cl)c1)Nc1nccs1` gave a CC50 in data set [1] of over 100000 nM. The half-maximal effective concentration (EC50) in the data set on Plasmodium falciparum [2] was over 9290 nM; in the data set on Plasmodium falciparum [3] it was over 12500 nM.
The like results for `Cc1cc(C)c2nc(SCC(=O)Nc3ccc4c(c3)OCCO4)cc(C)c2c1` were, in that order, over 10000 nM, over 942 nM and over 1250 nM.
As for `CC(C)(C)CC(C)(C)c1ccc(OCC(=O)NN=C2C(=O)Nc3ccccc32)c([N+](=O)[O-])c1`, the CC50 in data set [1] was over 10000 nM. In addition, the EC50 is 927 nM in the data set on Plasmodium falciparum [2] and over 1000 nM in the data set with Plasmodium falciparum [3].
